Row | SMILES | melting point
1 | CCOc1cc(-c2cc(C(F)(F)F)n3ncc(-c4ccnc(C)c4)c3n2)ccc1C(F)(F)F | 226 °C
2 | Nc1c(Cl)cc(C(F)(F)F)c(Cl)c1Cl | 37 to 39 °C
3 | COC=C(c1cccnc1)C(C)c1ccc(Cl)cc1Cl (centres undefined) | 67 to 68 °C
4 | CCOc1ncc(S(=O)(=O)N2CCN(CC)CC2)cc1-c1nc2c(CC)n(CCOC)nc2c(=O)[nH]1 | 158 to 160 °C
5 | COc1cc(C(C)(C)C)c(OC(C)=O)c(C(C)(C)C)c1 | 96.6 °C
6 | COc1cc(OC)cc(-c2oc3ncnc(N4CCCCC4)c3c2-c2ccccc2)c1 | 152 to 153 °C
7 | COc1cc(SC)sc1C1NC(C)(C)CO1 (centres undefined) | 56 to 58 °C
8 | CCOC(=O)c1cc2c(=O)n(-c3ccccc3)c3ccccc3n2c1 | 256 to 259 °C
9 | O=C1c2ccccc2S(=O)(=O)c2c1cccc2-c1nnn[nH]1 | 271 °C
10 | CC12CCC3C(CCC4C(=[N+]=[N-])C(=O)CCC43C)C1CCC2O (centres undefined) | 171 °C
11 | COc1ccc(Cl)c(Oc2c(C=O)nc(N3CCOCC3)nc2NS(=O)(=O)c2ccc(C(C)(C)C)cc2)c1 | 235 to 236 °C
12 | NS(=O)(=O)c1sccc1C(F)=C(F)Cl | 112 to 116 °C
13 | Nc1ccc(Br)cc1CS(=O)(=O)c1ccccc1 | 140 to 141 °C
14 | O=C(C=C(O)c1ccccc1O)c1cn(S(=O)(=O)c2ccccc2)c2ccc(Cl)cc12 | 241 to 244 °C
15 | O=C1c2ccccc2-c2c1c1ccc([N+](=O)[O-])cc1c(=O)n2CCCNS(=O)(=O)c1ccccc1 | 258 to 259 °C
16 | COC(=O)c1cc(C(=O)N[C@@H](Cc2ccccc2)[C@H](O)CNC2(c3cccc(C(F)(F)F)c3)CC2)n2c1CN(C(=O)OC(C)(C)C)CC2 | 136 °C
17 | CC(C)(C)OC(=O)c1nn(-c2ccc(Cl)cc2Cl)c(-c2ccc(Cl)cc2)c1CC#N | 168 °C
18 | Cn1ccnc1COc1ccccc1[N+](=O)[O-] | 172 to 174 °C
19 | CCOC(=O)c1c(N2CCN(C(=O)c3ccco3)CC2)c2cc(F)cnc2n(Cc2cccc(F)c2)c1=O | 121 °C
20 | C=CCOc1ccc(C(=O)Oc2ccc(O[Si](C)(C)C)cc2)cc1 | 87 °C
21 | CN1C(c2cnc3ccccc3c2)c2ccccc2CC1(C)C (centres undefined) | 116 to 118 °C

Row | SMILES | melting point
22 | O=C(O)c1cc(Br)ccc1Sc1ccccc1 | 171 to 173 °C
23 | CC=Cn1c(C(F)(F)F)nn(-c2c([N+](=O)[O-])cc(C(F)(F)F)cc2[N+](=O)[O-])c1=O | 136 °C
24 | COc1ccccc1N1CCN(CCCOc2ccc(-c3cn4ccccc4n3)cc2)CC1 | 149 to 150 °C
25 | O=C1CSC(c2ccc(-n3ccc(=O)cc3)cc2)=NN1 | 289 to 291 °C
26 | O=C(NCc1ccn(C2=CC3=C(CC2)CCc2[nH]c(=O)c(=O)[nH]c23)c1)Nc1ccccc1 | > 240 °C
27 | CC(CCCc1ccccc1)n1nnc2c(=O)[nH]c(C(=O)c3ccccc3)nc21 (centres undefined) | 105 °C
28 | COC(=O)c1ccc2nc(-n3ccnc3)nc(NCCOCCO)c2c1 | 233 to 235 °C
29 | O=C(Cc1ccc(Cc2ccc(F)cc2)o1)C(=O)c1ccc[nH]1 | 96 to 98 °C
30 | CCOP(=O)(/C=C\c1cnc(-c2ccccc2)nc1OCc1ccc(OCc2nc(-c3ccco3)oc2C)c(OC)c1)OCC | 103 to 104 °C
31 | Cc1nc(-c2ccc(Cn3sccc3=O)cc2)cs1 | 150 to 152 °C
32 | C=CCNc1nc(-c2ccccc2)c(-c2ccc(=O)n(CC=C)n2)s1 | 146 to 147 °C
33 | CN(C)C(=C[N+](=O)[O-])NCc1cnc(Cl)s1 | 101 to 102 °C
34 | COc1cc(OC)nc(C(C(=O)NS(C)(=O)=O)C(C)C)n1 (centres undefined) | 99 to 102 °C
35 | CCSc1[nH]c2cccc3c2c1CC1C3C=C(C)CN1C (centres undefined) | 168 to 169 °C
36 | CCC1CCN(C(=O)C(Cc2c[nH]cn2)NC(=O)C2CCC(=O)N2)C1C(N)=O (racemic) | 156 to 160 °C
37 | CC1(C)CC(=O)c2cc[nH]c2C1 | 177 to 178 °C
38 | CCCCCCCCC(=N)NC(=S)Nc1ccc(Cl)cc1 | 102 to 103 °C
39 | CCOC12CCC(=O)CC13CCN(C)C2Cc1ccc(OC)cc13 (centres undefined) | 171 to 173 °C
40 | CC(Sc1cc(C(C)(C)C)c(O)c(C(C)(C)C)c1)C(=O)CC(C)(O)C(C)Sc1cc(C(C)(C)C)c(O)c(C(C)(C)C)c1 (centres undefined) | 123 to 128 °C
41 | CCCCNC(=O)N1N=C(c2ccc([N+](=O)[O-])cc2)c2cc(Cl)ccc2CC1C (centres undefined) | 150 °C
42 | COc1ccc(C(=O)C2=C(c3ccccc3)c3ccccc3C2)cc1 | 114 to 115 °C

Row | SMILES | melting point
43 | COc1ccc(N2CCN(c3c(C)c(C)c4c(c3C)C(O)(Cc3ccccc3)C(C)(C)O4)CC2)cc1 (centres undefined) | 152 to 153 °C
44 | CC(=O)CCCCCCCCCCCCC(C)=O | 80 °C
45 | Nc1nc2ccccc2c2c1nc(-c1ccccc1)n2CCCCNC(=O)Nc1ccc(F)cc1 | 145 to 150 °C
46 | COc1cc(CC(=O)O)cc2c1NC(C(F)(F)F)CC2 (centres undefined) | 108 to 109 °C
47 | CCNC(=O)Nc1ccc2c(=O)n(CCCCN3CC=C(c4ccccc4)CC3)c(=O)[nH]c2c1 | 220 °C
48 | CN(C(=O)c1ccc(Cl)c(Cl)c1)c1ccccc1CCC(=O)O | 149 to 150 °C
49 | CC(C)n1nc(-c2ccc(=O)[nH]c2-c2ccccc2)ccc1=O | 107 to 109 °C
50 | Cc1cc(CN2CCNC2=C[N+](=O)[O-])on1 | 168 to 170 °C
51 | Nc1cc2c(cc1N)C1CC2CN(C(=O)C(F)(F)F)C1 | 129 to 131 °C
52 | CN(C)C(=O)CCCCC(=O)O | 80 °C
53 | O=C(CCCC1CCN(Cc2ccccc2)CC1)c1ccc(N2CCCC2)cc1 | 115 to 116 °C
54 | Clc1ccc(N2CCN3CCC2CC3)nn1 | 127 to 128 °C
55 | CCOC(=O)CCC(=O)OCC(=O)c1ccc(Cl)cc1 | 50 to 51 °C
56 | O=C(Nc1ccc2nc(CN3CCCC3)ccc2c1)N1CCC(c2ccccc2)CC1 | 187 to 189 °C
57 | CC(=O)Nc1ccc(C)cc1C(=O)c1ccc(F)cc1 | 140 to 145 °C
58 | O=C(N[C@@H](Cc1ccccc1)[C@@H](O)[C@H](O)[C@H](Cc1ccccc1)NC(=O)OCc1cccnc1)OCc1cccnc1 | 180 to 186 °C
59 | Cc1ccc(S(=O)(=O)N2CCC(CC(C#N)(c3ccccc3)c3ccccc3)CC2)cc1 | 130 °C
60 | CC(C)OC(=O)c1cc(N)ccc1Cl | 50.5 to 52 °C
61 | COc1c(NC(=O)c2ccc(Br)cc2)ccc2cc(CO)cnc12 | 185 to 187 °C
62 | CC(CC(C)C)=Nc1cc2c(cc1F)OCC(=O)N2 | 113 to 115 °C

Next, values leading:

Row | melting point | SMILES
63 | 98 °C | CCOC(=O)C1CCN(c2ccc(N)cc2C#N)CC1
64 | 122 °C | O=C(Nc1ccc2ncccc2c1)OCc1ccccc1
65 | 204 to 211 °C | COc1ncncc1NS(=O)(=O)c1cccc(Cl)c1Cl
66 | 167 to 169 °C | CS(=O)(=O)Nc1ccc(C#N)cc1Nc1ccc(F)cc1F
67 | 174 to 180 °C | O=C(O)c1cn2c3c(c(N4CCCC4)c(F)cc3c1=O)CCN2Cc1ccccc1
68 | 225 to 226 °C | O=C(c1ccc(Nc2ccnc3cc(C(F)(F)F)ccc23)cc1)N1CC=C(c2ccc(Cl)cc2)CC1
69 | 128 to 130 °C | CS(=O)(=O)c1ccc(-c2cnn(C3CCc4ccccc43)c(=O)c2-c2ccc(F)cc2)cc1 (centres undefined)
70 | 72 to 75 °C | O=Cc1cccc(OCc2nc(-c3ccccc3)c(-c3ccccc3)o2)c1
71 | 236 °C | Cn1cncc1C(O)(c1ccc(-c2ccc(Cl)cc2)cc1)c1ccc2c(c1)c(-c1cccc(Cl)c1)cc(=O)n2C (centres undefined)
72 | 84 to 86 °C | CC(C)(C)c1cc(CSCCC(=O)ON(Cc2ccccc2)Cc2ccccc2)cc(C(C)(C)C)c1O
73 | 70 to 71 °C | OC(CCNCc1ccccc1)(COc1ccc(Cl)cc1)c1ccccc1 (centres undefined)
74 | 111 to 116 °C | CCN1C[C@@H](O)[C@H](N(C(=O)c2ccc(Cl)cc2)C2CCCCC2)C1 (relative stereo)
75 | 106 to 108 °C | CON(CCCc1ccc(Cl)c(Cl)c1)C(=O)C1=C(O)C(=O)N(C)C1
76 | 42.5 to 43.5 °C | CCOC(=O)c1sc(Cl)nc1C(Cl)(Cl)Cl
77 | 125 °C | O=CNCC1CCN(C(c2ccccc2)c2ccccc2)CC1
78 | 83 to 83.5 °C | CNC(=O)C1CCCCN1C(=O)OC(C)(C)C (centres undefined)
79 | 131 °C | Cc1nn(-c2cccnc2)cc1I
80 | 134 to 135 °C | COC(=O)c1ccc(/C=C\c2ccc(C(=O)OC)cc2Cl)cc1
81 | 108 to 111 °C | CC(=O)C(Cl)=NNc1ccc(Oc2ccccc2)cc1

Row | melting point | SMILES
82 | 150 to 152 °C | Fc1ccccc1-c1c(OCc2nc3n(n2)CCCC3)nn2c(-c3ccccc3F)nncc12
83 | 89 to 91 °C | CC(=O)n1nc(C)c2ccc(F)cc21
84 | 206 to 208 °C | C=CCOc1cc(C(=O)O)cc(N)c1C(=O)c1ccccc1
85 | 88 to 89 °C | c1ccc(Cc2nc(-c3ccncc3)cs2)cc1
86 | 273 to 275 °C | Cc1ccccc1Nc1nc(N)nc2ccccc12
87 | 178 to 179 °C | Cc1ccc(-c2ccc3c(c2)C=C(C(=O)Nc2ccc(CCl)cc2)CC3)cc1
88 | 135 to 137 °C | COC(=O)c1cscc1NC(=O)COc1ccc(I)cc1
89 | 215 to 222 °C | O=C(O)CCc1cc2cc(Cl)ccc2n1S(=O)(=O)c1cccc2cccnc12
90 | 57 to 60 °C | Cc1cc(OCc2ccccc2)nc(S(C)(=O)=O)n1
91 | 179 to 181 °C | CC(=NO)c1nccc(OCC(F)(F)F)n1
92 | 58 to 59 °C | O=[N+]([O-])c1ccccc1Nc1ccccc1F
93 | 126 to 128 °C | CC(C)(O)CNC(=O)c1ccc(-c2ccc(C(CC3CCOCC3)c3ccc(S(=O)(=O)C4CC4)cc3)[nH]2)nc1 (centres undefined)
94 | 57 to 59 °C | CCCCCCCCc1ccc(CCC(CCOC(C)=O)(CCOC(C)=O)NC(C)=O)cc1
95 | 52 to 54 °C | COC(=O)CC(=O)Nc1cccc(S)c1
96 | 217 to 218 °C | O=C(CCl)Nc1ccc2c(c1NC(=O)COc1ccccc1)C(=O)c1ccccc1C2=O
97 | 65 to 68 °C | O=C(N1CCC1)N1CC(Oc2cccc(C(F)(F)F)c2)C1
98 | 176 to 177 °C | COc1cccc(Cn2cc3c(-c4cccc(C(=O)NCCO)c4)cccc3n2)c1
99 | 86 to 87 °C | CCOc1nc(C2CC2)nc(OCC)c1C=O
